The data set in a line: Pharmacokinetic determination in mice after gavage administration (P.O.). Format: in vivo. The note with it: male, CD-1, mouse, po, 10 mg/kg, plasma.

Turning to `[2H]C([2H])([2H])OC(=O)N[C@@H]1CCOc2c(-c3cc(F)c4c(ccc(=O)n4C)c3)cncc21` [Compound A50], the peak concentration (Cmax) is 9.07 µM. Besides, the AUC(0-t) (read-out: AUC0-24) was 136 µM·h.

As a reminder, the Cmax is the highest concentration seen after dosing.

The values above are taken from patent publication EP4806899A1, “FUSED RING DERIVATIVE, PREPARATION METHOD THEREFOR AND USE THEREOF IN MEDICINE” (Shanghai Qilu Pharmaceutical Research and Development …, priority 2023, dated 2025).
